Laboratory results reported in patent publication USRE42461E1, “Hydroxy-substituted azetidinone compounds useful as hypocholesterolemic agents” (Schering Corporation, priority 1994, dated 2011).
Where two headings read alike, the source gives them in different places.

Tested on: Hyperlipidemic Hamster
Assay: In Vivo Assay of Hypolipidemic Agents Using the Hyperlipidemic Hamster
Conditions: 0.5% cholesterol diet 7 days, oral gavage once daily in corn oil, percent change versus control, negative = lowering; for change in vivo at 50 mg/kg / change in vivo at 10 mg/kg / change in vivo at 5 mg/kg / change in vivo at 8 mg/kg / change in vivo at 7 mg/kg / change in vivo at 3 mg/kg / change in vivo at 1 mg/kg: Mesocricetus auratus, 168 h
Description: The in vivo activity of the compounds of formula I can be determined by the following procedure: […]
In Vivo Assay of Hypoligidemic Hypolipidemic Agents Using the Hyperlipidemic Hamster
Hamsters are separated into groups of six and given a controlled cholesterol diet (Purina Chow #5001 containing 0.5% cholesterol) for seven days. Diet consumption is monitored to determine dietary cholesterol exposure in the face of test compounds. The animals are dosed with the test compound once daily beginning with the initiation of diet. Dosing is by oral gavage of 0.2 mL of corn oil alone (control group) or solution (or suspension) of test compound in corn oil. All animals moribund or in poor physical condition are euthanized. After seven days, the animals are anesthetized by intramuscular (IM) injection of ketamine and sacrificed by decapitation. Blood is collected into vacutainer tubes containing EDTA for plasma lipid analysis and the liver excised for tissue lipid analysis. Lipid analysis is conducted as per published procedures (Schnitzer-Polokoff, R., et al. Comp. Biochem. Physiol., 99A, 4 (1991), p. 665-670) and data is reported as percent reduction of lipid versus control.
Using the test procedures described above, the following in vivo data were obtained for the exemplified compounds. Data is reported as percent change (i.e., percent reduction in cholesterol esters) versus control, therefore, negative numbers indicate a positive lipid-lowering effect.

[1] = liver cholesterol esters, read-out: % Reduction Cholest. Esters
[2] = po, read-out: % Reduction Serum Cholest.
[3] = liver cholesterol esters, dose 10 mg/kg, read-out: % Reduction Cholest. Esters
[4] = po, dose 10 mg/kg, read-out: % Reduction Serum Cholest.
[5] = liver cholesterol esters, dose 10 mg/kg
[6] = liver cholesterol esters, dose 1 mg/kg
[7] = liver cholesterol esters, dose 1 mg/kg, read-out: % Reduction Cholest. Esters
[8] = po, dose 1 mg/kg, read-out: % Reduction Serum Cholest.

Q: For `COc1ccc([C@H]2C(C[C@@H](O)c3ccccc3)C(=O)N2c2ccccc2)cc1` (stereo partly shown) [Example 1A], which change in vivo at 50 mg/kg [1] is on record?
A: 0%

Q: What about the change in vivo at 50 mg/kg [2] of the same compound?
A: -2.3%

Q: For `COc1ccc([C@@H]2C(C[C@@H](O)c3ccccc3)C(=O)N2c2ccccc2)cc1` (stereo partly shown) [Example 1B], which change in vivo at 50 mg/kg [1] is on record?
A: -39%

Q: What about the change in vivo at 50 mg/kg [2] of the same compound?
A: -15%

Q: Which results are given for `COc1ccc([C@H]2C(C[C@@H](OC(C)=O)c3ccccc3)C(=O)N2c2ccccc2)cc1` (stereo partly shown) [Example 2]?
A: change in vivo at 50 mg/kg [1]: 0%; change in vivo at 50 mg/kg [2]: 0%

Q: With `COc1ccc([C@@H]2C([C@@H](O)CCc3ccccc3)C(=O)N2c2ccccc2)cc1` (stereo partly shown) [Example 3A] as the compound, how does the change in vivo at 50 mg/kg [1] read?
A: -69%

Q: What about the change in vivo at 50 mg/kg [2] of the same compound?
A: -31%

Q: How did the change in vivo at 50 mg/kg [1] turn out when `COc1ccc([C@@H]2[C@H](C(O)CCc3ccccc3)C(=O)N2c2ccccc2)cc1` (stereo partly shown) [Example 3C] was run?
A: -92%

Q: What about the change in vivo at 50 mg/kg [2] of the same compound?
A: -60%

Q: For `COc1ccc([C@@H]2[C@H]([C@H](O)CCc3ccccc3)C(=O)N2c2ccccc2)cc1` [Example 3H], which change in vivo at 10 mg/kg [3] is on record?
A: -86%

Q: What about the change in vivo at 10 mg/kg [4] of the same compound?
A: -41%

Q: `COc1ccc([C@@H]2C([C@@H](O)c3cccc4ccccc34)C(=O)N2c2ccccc2)cc1` (stereo partly shown) [Example 3L] was tested. Which “% Reduction Serum Cholest.” value (dose 10 mg/kg) did it give?
A: −15%

Q: And the “% Reduction Cholest. Esters” value [5]?
A: −21%

Q: Which “% Reduction Serum Cholest.” value (dose 10 mg/kg) does the source give for `COc1ccc([C@@H]2C([C@@H](O)c3cccc4ccccc34)C(=O)N2c2ccccc2)cc1` (stereo partly shown) [Example 3M] here?
A: 0%

Q: And the “% Reduction Cholest. Esters” value [5]?
A: −22%

Q: `COc1ccc([C@@H]2C(CC[C@@H](O)c3ccccc3)C(=O)N2c2ccc(OC)cc2)cc1` (stereo partly shown) [Example 4A] was tested. Which change in vivo at 5 mg/kg [1] did it give?
A: -54%

Q: What about the change in vivo at 5 mg/kg [2] of the same compound?
A: 0%

Q: For `COc1ccc([C@@H]2C(CC[C@H](O)c3ccccc3)C(=O)N2c2ccc(OC)cc2)cc1` (stereo partly shown) [Example 4B], which change in vivo at 8 mg/kg [1] is on record?
A: -89%

Q: What about the change in vivo at 8 mg/kg [2] of the same compound?
A: -37%

Q: Which results are given for `COc1ccc([C@H]2[C@H](CC[C@H](O)c3ccccc3)C(=O)N2c2ccc(OC)cc2)cc1` [Example 4D]?
A: change in vivo at 7 mg/kg [1]: 0%; change in vivo at 7 mg/kg [2]: 9%

Q: How did the change in vivo at 3 mg/kg [1] turn out when `COc1ccc(N2C(=O)C(CC[C@@H](O)c3ccccc3)[C@H]2c2ccc(O)cc2)cc1` (stereo partly shown) [Example 4E] was run?
A: -46%

Q: And the change in vivo at 3 mg/kg [2]?
A: 0%

Q: Which change in vivo at 3 mg/kg [1] does the source give for `COc1ccc(N2C(=O)C(CC[C@H](O)c3ccccc3)[C@H]2c2ccc(O)cc2)cc1` (stereo partly shown) [Example 4F] here?
A: -95%

Q: And the change in vivo at 3 mg/kg [2]?
A: -29%

Q: `COCOc1ccc(C(O)CCC2C(=O)N(c3ccc(OC)cc3)[C@@H]2c2ccc(OC)cc2)cc1` (stereo partly shown) [Example 5] was tested. Which change in vivo at 10 mg/kg [3] did it give?
A: -64%

Q: What about the change in vivo at 10 mg/kg [4] of the same compound?
A: 0%

Q: What does the source list for `O=C1[C@H](CC[C@H](O)c2ccc(F)cc2)[C@@H](c2ccc(OCc3ccccc3)cc2)N1c1ccc(F)cc1` [Example 6A-1]?
A: % Reduction Serum Cholest. (dose 1 mg/kg): −43%; % Reduction Cholest. Esters [6]: −93%

Q: `O=C1C(CC[C@H](O)c2ccc(F)cc2)[C@@H](c2ccc(O)cc2)N1c1ccc(F)cc1` (stereo partly shown) [Example 6A] was tested. Which change in vivo at 1 mg/kg [7] did it give?
A: -95%

Q: What about the change in vivo at 1 mg/kg [8] of the same compound?
A: -59%

Q: For `O=C1C(CC[C@@H](O)c2ccc(F)cc2)[C@@H](c2ccc(O)cc2)N1c1ccc(F)cc1` (stereo partly shown) [Example 6B], which change in vivo at 3 mg/kg [1] is on record?
A: -92%

Q: What about the change in vivo at 3 mg/kg [2] of the same compound?
A: -40%

Q: Which results are given for `COc1ccc(N2C(=O)C(CC[C@@H](O)c3ccccc3)[C@H]2c2ccc(OC(C)=O)cc2)cc1` (stereo partly shown) [Example 6C]?
A: change in vivo at 3 mg/kg [1]: -48%; change in vivo at 3 mg/kg [2]: 0%

Q: Which results are given for `COc1ccc(N2C(=O)C(CC[C@H](O)c3ccccc3)[C@H]2c2ccc(OC(C)=O)cc2)cc1` (stereo partly shown) [Example 6D]?
A: change in vivo at 10 mg/kg [3]: -95%; change in vivo at 10 mg/kg [4]: -46%

Q: `COc1ccc([C@@H]2[C@@H](CC[C@@H](OC(C)=O)c3ccccc3)C(=O)N2c2ccc(OC)cc2)cc1` [Example 8A, 1,4(S)-bis(4-methoxyphenyl)-3(R)-(3(R)-acetoxy-3-phenylpropyl)-2-azetidinone] was tested. Which change in vivo at 3 mg/kg [1] did it give?
A: -44%

Q: And the change in vivo at 3 mg/kg [2]?
A: 0%

Q: How did the change in vivo at 3 mg/kg [1] turn out when `COc1ccc([C@@H]2[C@@H](CC[C@H](OC(C)=O)c3ccccc3)C(=O)N2c2ccc(OC)cc2)cc1` [Example 8B, 1,4(S)-bis(4-methoxyphenyl)-3(R)-(3(S)-acetoxy-3-phenylpropyl)-2-azetidinone] was run?
A: -95%

Q: And the change in vivo at 3 mg/kg [2]?
A: -50%

Q: How did the “% Reduction Serum Cholest.” value (dose 1 mg/kg) turn out when `CC(=O)Oc1ccc([C@@H]2[C@@H](CC[C@@H](OC(C)=O)c3ccc(F)cc3)C(=O)N2c2ccc(F)cc2)cc1` [Example 8C, 4(S)-(4-acetyloxyphenyl)-3(R)-(3(R)-acetyloxiy-3-(4-fluorophenyl)propyl)-1-(4-fluorophenyl)-2-azetidinone] was run?
A: −14%

Q: What about the “% Reduction Cholest. Esters” value [6] of the same compound?
A: −37%

Q: For `CC(=O)Oc1ccc([C@@H]2[C@@H](CC[C@H](OC(C)=O)c3ccc(F)cc3)C(=O)N2c2ccc(F)cc2)cc1` [Example 8D, 4(S)-(4-acetyloxyphenyl)-3(R)-(3(S)-acetyloxy-3-(4-fluorophenyl)propyl)-1-(4-fluorophenyl)-2-azetidinone], which change in vivo at 1 mg/kg [7] is on record?
A: -98%

Q: What about the change in vivo at 1 mg/kg [8] of the same compound?
A: -49%

Q: `CC(=O)Oc1ccc([C@@H]2C(CC[C@H](OC(C)=O)c3ccc(Cl)cc3)C(=O)N2c2ccc(Cl)cc2)cc1` (stereo partly shown) [Example 8E] was tested. Which change in vivo at 3 mg/kg [1] did it give?
A: -66%

Q: And the change in vivo at 3 mg/kg [2]?
A: -22%

Q: Which results are given for `CC(=O)Oc1ccc([C@@H]2C(CC[C@@H](OC(C)=O)c3ccc(Cl)cc3)C(=O)N2c2ccc(Cl)cc2)cc1` (stereo partly shown) [Example 8F]?
A: change in vivo at 1 mg/kg [7]: -94%; change in vivo at 1 mg/kg [8]: -43%

Q: With `O=C1[C@@H]([C@H](O)CCc2ccccc2)[C@@H](c2ccc(O)cc2)N1c1ccc(F)cc1` [Example 10] as the compound, how does the change in vivo at 3 mg/kg [1] read?
A: -77%

Q: What about the change in vivo at 3 mg/kg [2] of the same compound?
A: -26%
